Consider 27 compounds from patent US10072001B2, “Tank-binding kinase inhibitor compounds” (Gilead Sciences, Inc., priority 2014, dated 2018).

A value given as a limit tells only on which side of the number the result lay.

The target of test [1] is IKKε (Homo sapiens (Human), UniProt Q14164). Description: TR-FRET kinase assay, IKKε. It counts as biochemical. Particulars: full length recombinant IKKε 0.3 nM, 2x Km ATP, 1 μM peptide, 240 min at 25° C.; geometric mean of minimum four determinations. The text has this:
Biological Assay for TBK1 and IKKs:
For orientation: TR-FRET usually uses a lanthanide donor and a delayed reading to cut background.

For test [2], the target named is TBK1 (Homo sapiens (Human), UniProt Q9UHD2). Description: TR-FRET kinase assay, TBK1. The following applies: read-out: TBK1-IC50; full length recombinant TBK1 2.5 nM, 2x Km ATP, 1 μM peptide, 240 min at 25° C.; geometric mean of minimum four determinations.
TBK1, sequence (Q9UHD2 whole entry): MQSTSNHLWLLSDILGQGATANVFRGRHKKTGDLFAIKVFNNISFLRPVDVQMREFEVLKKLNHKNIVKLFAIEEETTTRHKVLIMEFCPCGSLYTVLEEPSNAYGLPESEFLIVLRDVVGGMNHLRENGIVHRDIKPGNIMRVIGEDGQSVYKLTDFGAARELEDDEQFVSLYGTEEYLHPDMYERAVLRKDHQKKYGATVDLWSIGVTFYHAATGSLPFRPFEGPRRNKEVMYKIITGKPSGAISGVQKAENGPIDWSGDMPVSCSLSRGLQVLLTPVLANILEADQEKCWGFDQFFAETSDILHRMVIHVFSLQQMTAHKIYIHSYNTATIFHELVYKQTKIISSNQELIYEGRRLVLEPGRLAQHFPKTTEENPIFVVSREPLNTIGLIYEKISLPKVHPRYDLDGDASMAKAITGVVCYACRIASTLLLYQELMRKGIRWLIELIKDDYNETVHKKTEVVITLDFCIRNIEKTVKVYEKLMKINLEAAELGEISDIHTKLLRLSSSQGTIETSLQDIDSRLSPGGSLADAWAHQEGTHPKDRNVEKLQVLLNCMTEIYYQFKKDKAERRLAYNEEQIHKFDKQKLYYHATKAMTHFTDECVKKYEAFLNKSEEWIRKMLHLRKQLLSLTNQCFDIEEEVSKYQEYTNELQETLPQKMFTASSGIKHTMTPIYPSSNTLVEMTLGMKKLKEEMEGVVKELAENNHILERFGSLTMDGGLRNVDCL

IKKε, sequence (Q14164 whole entry): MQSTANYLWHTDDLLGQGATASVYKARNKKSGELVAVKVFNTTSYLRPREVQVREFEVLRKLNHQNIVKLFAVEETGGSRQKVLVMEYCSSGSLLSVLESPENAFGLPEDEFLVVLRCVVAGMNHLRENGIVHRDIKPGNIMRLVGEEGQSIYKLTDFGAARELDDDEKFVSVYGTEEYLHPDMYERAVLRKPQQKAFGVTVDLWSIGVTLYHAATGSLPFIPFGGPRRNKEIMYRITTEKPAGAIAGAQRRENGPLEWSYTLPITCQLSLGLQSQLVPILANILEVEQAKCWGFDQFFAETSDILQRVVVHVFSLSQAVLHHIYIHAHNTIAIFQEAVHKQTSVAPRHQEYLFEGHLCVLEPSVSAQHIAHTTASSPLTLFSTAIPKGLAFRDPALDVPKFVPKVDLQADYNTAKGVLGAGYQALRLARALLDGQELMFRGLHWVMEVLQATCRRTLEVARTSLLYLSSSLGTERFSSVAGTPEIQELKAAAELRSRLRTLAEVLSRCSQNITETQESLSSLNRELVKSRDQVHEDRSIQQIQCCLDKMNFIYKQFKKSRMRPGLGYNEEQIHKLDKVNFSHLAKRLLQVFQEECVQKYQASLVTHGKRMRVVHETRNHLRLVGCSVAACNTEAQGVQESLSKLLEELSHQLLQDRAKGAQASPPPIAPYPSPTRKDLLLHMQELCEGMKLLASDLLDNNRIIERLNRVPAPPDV

In general, IC50 refers to the concentration at which inhibition is half-maximal. Regarding `N#Cc1cc(-c2ncnc3[nH]c(-c4cnc5c(c4)NCCO5)cc23)ccc1OC1CCOCC1` [Example 189, 5-(6-(2,3-dihydro-1H-pyrido[2,3-b][1,4]oxazin-7-yl)-7H-pyrrolo[2,3-d]pyrimidin-4-yl)-2-((tetrahydro-2H-pyran-4-yl)oxy)benzonitrile], the values for the IC50 in test [1] and in test [2] were 7.99 nM and 4.36 nM, respectively.
The corresponding values for `N#Cc1cc(-c2ccnc3[nH]c(-c4ccc(C5(O)COC5)cc4)cc23)ccc1OC1CCOCC1` [Example 8, 5-(2-(4-(3-hydroxyoxetan-3-yl)phenyl)-1H-pyrrolo[2,3-b]pyridin-4-yl)-2-((tetrahydro-2H-pyran-4-yl)oxy)benzonitrile] are 6.99 nM and 3.09 nM.
The corresponding values for `N#Cc1cc(-c2ncnc3[nH]c(-c4cccc(C(N)=O)c4)cc23)ccc1OC1CCOCC1` [Example 171, 3-(4-(3-cyano-4-((tetrahydro-2H-pyran-4-yl)oxy)phenyl)-7H-pyrrolo[2,3-d]pyrimidin-6-yl)benzamide] are 10.6 nM and 6.4 nM.
The corresponding values for `N#Cc1cc(-c2ccnc3[nH]c(-c4ccc(N5CCOCC5)cc4)cc23)ccc1N1CCCC1` [Example 49, 5-(2-(4-morpholinophenyl)-1H-pyrrolo[2,3-b]pyridin-4-yl)-2-(pyrrolidin-1-yl)benzonitrile] are above 78 nM and 7.05 nM.
For the compound `Cn1cc(-c2nc3c(-c4ccc(OC5CCOCC5)c(C#N)c4)ncnc3[nH]2)cn1` [Example 213, 5-(8-(1-methyl-1H-pyrazol-4-yl)-9H-purin-6-yl)-2-((tetrahydro-2H-pyran-4-yl)oxy)benzonitrile], the IC50 was 30.2 nM in test [1] and 12.4 nM in test [2].
The corresponding values for `N#Cc1cc(-c2ccnc3[nH]c(-c4cnn(C5CNC5)c4)cc23)ccc1OC1CCOCC1` [Example 9, 5-(2-(1-(azetidin-3-yl)-1H-pyrazol-4-yl)-1H-pyrrolo[2,3-b]pyridin-4-yl)-2-((tetrahydro-2H-pyran-4-yl)oxy)benzonitrile] are 1.41 nM and 2.38 nM.
The corresponding values for `N#Cc1cc(-c2ncnc3[nH]c(-c4cccc(Cn5ccnc5)c4)cc23)ccc1OC1CCOCC1` [Example 119, 5-(6-(3-((1H-imidazol-1-yl)methyl)phenyl)-7H-pyrrolo[2,3-d]pyrimidin-4-yl)-2-((tetrahydro-2H-pyran-4-yl)oxy)benzonitrile] are 1.22 nM and 1.23 nM.
The corresponding values for `N#Cc1cc(-c2ccnc3[nH]c(-c4cnn(C5CCNCC5)c4)cc23)ccc1OC1CCOCC1` [Example 10, 5-(2-(1-(piperidin-4-yl)-1H-pyrazol-4-yl)-1H-pyrrolo[2,3-b]pyridin-4-yl)-2-((tetrahydro-2H-pyran-4-yl)oxy)benzonitrile] are 1.74 nM and 1.22 nM.
`N#Cc1cc(-c2c(F)cnc3[nH]c(-c4ccc(N5CCOCC5)cc4)cc23)ccc1OC1CCOCC1` [Example 47, 5-(5-fluoro-2-(4-morpholinophenyl)-1H-pyrrolo[2,3-b]pyridin-4-yl)-2-((tetrahydro-2H-pyran-4-yl)oxy)benzonitrile]: the figures for the IC50 in test [1] and in test [2] were 17.5 nM and 4.05 nM, respectively.
The corresponding values for `CC(C)(O)c1ccc(-c2nc3c(-c4ccc(OC5CCOCC5)c(C#N)c4)ncnc3[nH]2)cc1` [Example 228, 5-(8-(4-(2-hydroxypropan-2-yl)phenyl)-9H-purin-6-yl)-2-((tetrahydro-2H-pyran-4-yl)oxy)benzonitrile] are 14.5 nM and 1.62 nM.
The corresponding values for `COc1ccc(-c2cc3c(-c4ccc(OC5CCN(C(=O)CO)CC5)c(C#N)c4)ncnc3[nH]2)cc1` [Example 126, 2-((1-(2-hydroxyacetyl)piperidin-4-yl)oxy)-5-(6-(4-methoxyphenyl)-7H-pyrrolo[2,3-d]pyrimidin-4-yl)benzonitrile] are 3.29 nM and 1.34 nM.
The corresponding values for `N#Cc1cc(-c2ncnc3[nH]c(-c4ccc(N5CCOCC5)cc4)nc23)ccc1OC1CCN(C(=O)C(F)F)CC1` [Example 248, 2-((1-(2,2-difluoroacetyl)piperidin-4-yl)oxy)-5-(8-(4-morpholinophenyl)-9H-purin-6-yl)benzonitrile] are 9.82 nM and 3.63 nM.
With `N#Cc1cc(-c2ccnc3[nH]c(-c4ccc(N5CCOCC5)cc4)cc23)ccc1NC(=O)C1CC1` [Example 32, N-(2-cyano-4-(2-(4-morpholinophenyl)-1H-pyrrolo[2,3-b]pyridin-4-yl)phenyl)cyclopropanecarboxamide], the IC50 was above 1000 nM in test [1] and 9.34 nM in test [2].
The corresponding values for `Cc1cc(N2CCOCC2)ccc1-c1cc2c(-c3ccc(OC4CCNCC4)c(C#N)c3)ncnc2[nH]1` [Example 120, 5-(6-(2-methyl-4-morpholinophenyl)-7H-pyrrolo[2,3-d]pyrimidin-4-yl)-2-(piperidin-4-yloxy)benzonitrile] are 102 nM and 22.2 nM.
The corresponding values for `N#Cc1cc(-c2cc3c(-c4ccc(OC5CCOCC5)c(C#N)c4)ccnc3[nH]2)ccc1OC1CCOCC1` [Example 62, 5,5′-(1H-pyrrolo[2,3-b]pyridine-2,4-diyl)bis(2-((tetrahydro-2H-pyran-4-yl)oxy)benzonitrile)] are 25.3 nM and 24.1 nM.
The corresponding values for `N#Cc1cc(-c2ccnc3[nH]c(-c4ccc(N5CCN(C6COC6)CC5)cc4)cc23)ccc1OC1CCOCC1` [Example 85, 5-(2-(4-(4-(oxetan-3-yl)piperazin-1-yl)phenyl)-1H-pyrrolo[2,3-b]pyridin-4-yl)-2-((tetrahydro-2H-pyran-4-yl)oxy)benzonitrile] are 3.5 nM and 1.31 nM.
With `N#CCC(=O)N1CC[C@@H](Oc2ccc(-c3ccnc4[nH]c(-c5ccc(N6CCOCC6)cc5)nc34)cc2C#N)C1` [Example 303, (R)-2-((1-(2-cyanoacetyl)pyrrolidin-3-yl)oxy)-5-(2-(4-morpholinophenyl)-3H-imidazo[4,5-b]pyridin-7-yl)benzonitrile], the values for the IC50 in test [1] and in test [2] were 7.51 nM and 4.59 nM, respectively.
The corresponding values for `N#Cc1cc(-c2ccnc3[nH]c(-c4ccc(N5CCOCC5)cc4)cc23)ccc1F` [Example 58, 2-fluoro-5-(2-(4-morpholinophenyl)-1H-pyrrolo[2,3-b]pyridin-4-yl)benzonitrile] are above 1000 nM and 6.06 nM.
The corresponding values for `N#Cc1cc(-c2ccnc3[nH]c(-c4ccc(N5CCOCC5)cc4)cc23)ccc1O[C@@H]1CCNC1` [Example 14, (R)-5-(2-(4-morpholinophenyl)-1H-pyrrolo[2,3-b]pyridin-4-yl)-2-(pyrrolidin-3-yloxy)benzonitrile] are 20.8 nM and 6.86 nM.
The corresponding values for `COc1cc(-c2cc3c(-c4ccc(OC5CCOCC5)c(C#N)c4)c(F)cnc3[nH]2)ccc1N1CCOCC1` [Example 172, 5-(5-fluoro-2-(3-methoxy-4-morpholinophenyl)-1H-pyrrolo[2,3-b]pyridin-4-yl)-2-((tetrahydro-2H-pyran-4-yl)oxy)benzonitrile] are 260 nM and 30.2 nM.
As for `N#Cc1cc(-c2ccnc3[nH]c(-c4ccc(N5CCOCC5)cc4)nc23)ccc1O[C@@H]1CCN(C(=O)CO)C1` [Example 196, (R)-2-((1-(2-hydroxyacetyl)pyrrolidin-3-yl)oxy)-5-(2-(4-morpholinophenyl)-3H-imidazo[4,5-b]pyridin-7-yl)benzonitrile], the IC50 in test [1] came to 12.7 nM; in test [2], 4.5 nM.
The corresponding values for `N#Cc1cc(-c2ncnc3[nH]c(-c4ccc(N5CCOCC5)cc4)cc23)ccc1OC1CCN(C(=O)CO)CC1` [Example 220, 2-((1-(2-hydroxyacetyl)piperidin-4-yl)oxy)-5-(6-(4-morpholinophenyl)-7H-pyrrolo[2,3-d]pyrimidin-4-yl)benzonitrile] are 1.48 nM and 0.503 nM.
The corresponding values for `CN1CCN(c2ccc(-c3nc4c(-c5ccc(OC6CCN(C=O)CC6)c(C#N)c5)ncnc4[nH]3)cc2)CC1` [Example 254, 2-((1-formylpiperidin-4-yl)oxy)-5-(8-(4-(4-methylpiperazin-1-yl)phenyl)-9H-purin-6-yl)benzonitrile] are 2.69 nM and 4.22 nM.
`CC(C)(C)OC(=O)N1CCC(Oc2ccc(-c3ncnc4[nH]c(-c5ccc(N6CCOCC6)cc5)nc34)cc2C#N)CC1` [Example 203, tert-butyl 4-(2-cyano-4-(8-(4-morpholinophenyl)-9H-purin-6-yl)phenoxy)piperidine-1-carboxylate]: the concentration for half-maximal inhibition (IC50) in test [1] and in test [2] was above 1000 nM in each case.
With `COc1cc(-c2cc3c(-c4ccc(OC5CCNCC5(F)F)c(C#N)c4)ncnc3[nH]2)ccc1N1CCN(C2COC2)CC1` (stereo not drawn) [Example 140, 2-((3,3-difluoropiperidin-4-yl)oxy)-5-(6-(3-methoxy-4-(4-(oxetan-3-yl)piperazin-1-yl)phenyl)-7H-pyrrolo[2,3-d]pyrimidin-4-yl)benzonitrile], the IC50 in test [1] was found to be 32.9 nM; in test [2] it was 3.55 nM.
The corresponding values for `N#Cc1cc(-c2ncnc3[nH]c(-c4ccc(N5CCN(C6COC6)CC5)cc4)cc23)ccc1OC1CCN(C(=O)CO)CC1` [Example 157, 2-((1-(2-hydroxyacetyl)piperidin-4-yl)oxy)-5-(6-(4-(4-(oxetan-3-yl)piperazin-1-yl)phenyl)-7H-pyrrolo[2,3-d]pyrimidin-4-yl)benzonitrile] are 1.43 nM and 0.849 nM.
The corresponding values for `CC1(C)C(=O)Nc2cc(-c3cc4c(-c5ccc(OC6CCOCC6)c(C#N)c5)ncnc4[nH]3)ccc21` [Example 188, 5-(6-(3,3-dimethyl-2-oxoindolin-6-yl)-7H-pyrrolo[2,3-d]pyrimidin-4-yl)-2-((tetrahydro-2H-pyran-4-yl)oxy)benzonitrile] are 8.46 nM and 1.69 nM.
